Measured values: ChEMBL document CHEMBL4000220, “Optimization of spirocyclic proline tryptophan hydroxylase-1 inhibitors” (Bioorg Med Chem Lett, 2017)
Activity calls are given as the source filed them. The rule behind the calls is not given here.

What was measured:
Mus musculus [1] = experiment: In vivo inhibition of TPH1 in mouse assessed as reduction in 5-HT level in intestinal mucosa at 50 mg/kg, po administered daily as single dose relative to control; assay type: functional
[2] = molecular target: T1, Tryptophan 5-hydroxylase 1 (Homo sapiens, UniProt P17752)
T1 sequence (P17752 whole entry): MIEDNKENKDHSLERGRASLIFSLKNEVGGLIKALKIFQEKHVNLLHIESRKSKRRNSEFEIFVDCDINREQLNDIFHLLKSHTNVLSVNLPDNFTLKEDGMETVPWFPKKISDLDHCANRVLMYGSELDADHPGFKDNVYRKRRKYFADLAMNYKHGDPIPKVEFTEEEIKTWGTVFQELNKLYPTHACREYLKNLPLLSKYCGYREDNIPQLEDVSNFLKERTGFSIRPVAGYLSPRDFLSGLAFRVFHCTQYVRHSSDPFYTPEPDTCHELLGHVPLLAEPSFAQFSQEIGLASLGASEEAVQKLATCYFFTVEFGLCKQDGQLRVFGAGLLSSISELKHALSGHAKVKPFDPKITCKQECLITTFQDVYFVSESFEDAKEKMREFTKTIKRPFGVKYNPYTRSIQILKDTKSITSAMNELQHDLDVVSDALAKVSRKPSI
Description: Inhibition of TPH1 (unknown origin)

Mus musculus [3] = experiment: Drug level in mouse treated with (S)-ethyl 8-(2-amino-6-((R)-1-(5-chloro-3'-methylbiphenyl-2-yl)-2,2,2-trifluoroethoxy)pyrimidin-4-yl)-2,8-diazaspiro[4.5]decane-3-carboxylate at 10 to 50 mg/kg, po administered as single dose; assay type: ADME, organism-based; conditions: in vivo
[4] = Drug level in rat hepatocytes treated with ethyl 8-(2-amino-6-((R)-1-(4-chloro-2-(3-methyl-1H-pyrazol-1-yl)phenyl)-2,2,2-trifluoroethoxy)pyrimidin-4-yl)-2,8-diazaspiro[4.5]decane-3-carboxylate; assay type: ADME, cell-based, Hepatocyte
Mus musculus [5] = experiment: Drug level in mouse treated with (S)-ethyl 8-(2-amino-6-((R)-1-(5-chloro-3'-(trifluoromethyl)biphenyl-2-yl)-2,2,2-trifluoroethoxy)pyrimidin-4-yl)-2,8-diazaspiro[4.5]decane-3-carboxylate at 10 to 50 mg/kg, po administered as single dose; assay type: ADME, organism-based; conditions: in vivo
Mus musculus [6] = experiment: Drug level in mouse treated with (S)-ethyl 8-(2-amino-6-((R)-1-(5-chloro-3',5'-difluorobiphenyl-2-yl)-2,2,2-trifluoroethoxy)pyrimidin-4-yl)-2,8-diazaspiro[4.5]decane-3-carboxylate at 10 to 50 mg/kg, po administered as single dose; assay type: ADME, organism-based; conditions: in vivo
Mus musculus [7] = experiment: Drug level in mouse treated with (S)-ethyl 8-(2-amino-6-((R)-1-(3'-tert-butyl-5-chlorobiphenyl-2-yl)-2,2,2-trifluoroethoxy)pyrimidin-4-yl)-2,8-diazaspiro[4.5]decane-3-carboxylate at 10 to 50 mg/kg, po administered as single dose; assay type: ADME, organism-based; conditions: in vivo
Mus musculus [8] = experiment: Drug level in mouse treated (S)-ethyl 8-(2-amino-6-((R)-1-(5-chloro-3'-fluorobiphenyl-2-yl)-2,2,2-trifluoroethoxy)pyrimidin-4-yl)-2,8-diazaspiro[4.5]decane-3-carboxylate at 10 to 50 mg/kg, po administered as single dose; assay type: ADME, organism-based; conditions: in vivo

SMILES	IC50 [2] [µM]	inhibition (Mus musculus [1])	further results
CCOC(=O)[C@@H]1CC2(CCN(c3cc(O[C@H](c4ccc(-c5ccc6c(C)n(C)nc6c5)cc4)C(F)(F)F)nc(N)n3)CC2)CN1		inactive	
COc1ccc(-c2ccc([C@@H](Oc3cc(N4CCC5(CC4)CN[C@H](C(=O)O)C5)nc(N)n3)C(F)(F)F)c(-n3ccc(C)n3)c2)cc1	0.023		
CCOC(=O)[C@@H]1CC2(CCN(c3cc(O[C@H](c4ccc(-c5ccc6c(C)nn(C)c6c5)cc4)C(F)(F)F)nc(N)n3)CC2)CN1		inactive	
CCOC(=O)[C@@H]1CC2(CCN(c3cc(O[C@H](c4ccc(-c5ccc6[nH]ncc6c5)cc4)C(F)(F)F)nc(N)n3)CC2)CN1		inactive	
Cc1cccc(-c2cc(Cl)ccc2[C@@H](Oc2cc(N3CCC4(CC3)CN[C@H](C(=O)O)C4)nc(N)n2)C(F)(F)F)c1	0.026		Drug metabolism (Mus musculus [3]): Metabolite_Detected
Nc1nc(O[C@H](c2ccc(Cl)cc2-n2ccc(C(=O)O)n2)C(F)(F)F)cc(N2CCC3(CC2)CNC(C(=O)O)C3)n1 (some centres undefined)			Drug metabolism [4]: Metabolite_Detected
CCOC(=O)[C@@H]1CC2(CCN(c3cc(O[C@H](c4ccc(-c5ccc6cnccc6c5)cc4)C(F)(F)F)nc(N)n3)CC2)CN1		inactive	
Nc1nc(O[C@H](c2ccc(Cl)cc2-n2ccc(COS(=O)(=O)O)n2)C(F)(F)F)cc(N2CCC3(CC2)CNC(C(=O)O)C3)n1 (some centres undefined)			Drug metabolism [4]: Metabolite_Detected
CCOC(=O)[C@@H]1CC2(CCN(c3cc(O[C@H](c4ccc(-c5ccc6c(c5)CCN(C)C6=O)cc4)C(F)(F)F)nc(N)n3)CC2)CN1		inactive	
Nc1nc(O[C@H](c2ccc(Cl)cc2-c2ccc(F)c(F)c2)C(F)(F)F)cc(N2CCC3(CC2)CN[C@H](C(=O)O)C3)n1	0.035		
Nc1nc(O[C@H](c2ccc(Cl)cc2-n2ccc(CO)n2)C(F)(F)F)cc(N2CCC3(CC2)CNC(C(=O)O)C3)n1 (some centres undefined)			Drug metabolism [4]: Metabolite_Detected
CCOC(=O)[C@@H]1CC2(CCN(c3cc(O[C@H](c4ccc(-c5ccc(OC)cc5)cc4-n4ccc(C)n4)C(F)(F)F)nc(N)n3)CC2)CN1			inhibition in vivo at 50 mg/kg (Mus musculus [1]): 46%
N#Cc1cccc(-c2cc(Cl)ccc2[C@@H](Oc2cc(N3CCC4(CC3)CN[C@H](C(=O)O)C4)nc(N)n2)C(F)(F)F)c1	0.03		
CCOC(=O)[C@@H]1CC2(CCN(c3cc(O[C@H](c4ccc(Cl)cc4-n4ccc(C)n4)C(F)(F)F)nc(N)n3)CC2)CN1			inhibition in vivo at 50 mg/kg (Mus musculus [1]): 61%
Cn1ncc2cc(-c3ccc([C@@H](Oc4cc(N5CCC6(CC5)CN[C@H](C(=O)O)C6)nc(N)n4)C(F)(F)F)cc3)ccc21	0.03	inactive	
CCOC(=O)[C@@H]1CC2(CCN(c3cc(O[C@H](c4ccc(-c5ccc6ncc(F)cc6c5)cc4)C(F)(F)F)nc(N)n3)CC2)CN1		inactive	
CCOc1ccc(-c2cc(Cl)ccc2[C@@H](Oc2cc(N3CCC4(CC3)CN[C@H](C(=O)O)C4)nc(N)n2)C(F)(F)F)cc1Cl	0.207		
CCOC(=O)[C@@H]1CC2(CCN(c3cc(O[C@H](c4ccc(Cl)cc4)C(F)(F)F)nc(N)n3)CC2)CN1		inactive	
CCOC(=O)[C@@H]1CC2(CCN(c3cc(O[C@H](c4ccc(-c5ccc6c(c5)CCC(=O)N6)cc4)C(F)(F)F)nc(N)n3)CC2)CN1		inactive	
CCOC(=O)[C@@H]1CC2(CCN(c3cc(O[C@H](c4ccc(-c5ccc6c(cnn6C)c5)cc4)C(F)(F)F)nc(N)n3)CC2)CN1		inactive	
Nc1nc(O[C@H](c2ccc(Cl)cc2-c2cccc(F)c2)C(F)(F)F)cc(N2CCC3(CC2)CN[C@H](C(=O)O)C3)n1	0.032		Drug metabolism (Mus musculus [8]): Metabolite_Detected
CCOC(=O)[C@@H]1CC2(CCN(c3cc(O[C@H](c4ccc(-c5ccc6nc(SC)ccc6c5)cc4)C(F)(F)F)nc(N)n3)CC2)CN1		inactive	
CCOC(=O)[C@@H]1CC2(CCN(c3cc(O[C@H](c4ccc(-c5ccc(Cl)c(Cl)c5)cc4-n4ccc(C)n4)C(F)(F)F)nc(N)n3)CC2)CN1			inhibition in vivo at 50 mg/kg (Mus musculus [1]): 60%

The next lines start with results.

IC50 [2] [µM]	SMILES	inhibition (Mus musculus [1])	further results
0.04	Nc1nc(O[C@H](c2ccc(-c3ccc4ncc(F)cc4c3)cc2)C(F)(F)F)cc(N2CCC3(CC2)CN[C@H](C(=O)O)C3)n1	inactive	
0.04	NC(=O)c1cccc(-c2cc(Cl)ccc2[C@@H](Oc2cc(N3CCC4(CC3)CN[C@H](C(=O)O)C4)nc(N)n2)C(F)(F)F)c1		
0.065	Nc1nc(O[C@H](c2ccc(Cl)cc2-c2cccnc2)C(F)(F)F)cc(N2CCC3(CC2)CN[C@H](C(=O)O)C3)n1		
0.021	Nc1nc(O[C@H](c2ccc(Cl)cc2-c2cccc(C(F)(F)F)c2)C(F)(F)F)cc(N2CCC3(CC2)CN[C@H](C(=O)O)C3)n1		Drug metabolism (Mus musculus [5]): Metabolite_Detected
0.46	Nc1nc(O[C@H](c2ccc(Cl)cc2)C(F)(F)F)cc(N2CCC3(CC2)CN[C@H](C(=O)O)C3)n1	inactive	
0.039	CN1CCc2cc(-c3ccc([C@@H](Oc4cc(N5CCC6(CC5)CN[C@H](C(=O)O)C6)nc(N)n4)C(F)(F)F)cc3)ccc2C1=O	inactive	
0.022	Nc1nc(O[C@H](c2ccc(Cl)cc2-c2cc(F)cc(F)c2)C(F)(F)F)cc(N2CCC3(CC2)CN[C@H](C(=O)O)C3)n1		Drug metabolism (Mus musculus [6]): Metabolite_Detected
0.037	Cc1c2ccc(-c3ccc([C@@H](Oc4cc(N5CCC6(CC5)CN[C@H](C(=O)O)C6)nc(N)n4)C(F)(F)F)cc3)cc2nn1C	inactive	
0.032	Nc1nc(O[C@H](c2ccc(-c3ccc4[nH]ncc4c3)cc2)C(F)(F)F)cc(N2CCC3(CC2)CN[C@H](C(=O)O)C3)n1	inactive	
0.073	Cc1cccc(-c2cc(Cl)ccc2[C@@H](Oc2cc(N3CCC4(CC3)CN[C@H](C(=O)O)C4)nc(N)n2)C(F)(F)F)n1		
0.077	Nc1nc(O[C@H](c2ccc(Cl)cc2-c2cccc(N3CCCC3=O)c2)C(F)(F)F)cc(N2CCC3(CC2)CN[C@H](C(=O)O)C3)n1		
0.035	Nc1nc(O[C@H](c2ccc(Cl)cc2-c2cc(F)cc(Cl)c2)C(F)(F)F)cc(N2CCC3(CC2)CN[C@H](C(=O)O)C3)n1		
0.032	Cc1nn(C)c2cc(-c3ccc([C@@H](Oc4cc(N5CCC6(CC5)CN[C@H](C(=O)O)C6)nc(N)n4)C(F)(F)F)cc3)ccc12	inactive	
0.885	CS(=O)(=O)c1ccc(-c2cc(Cl)ccc2[C@@H](Oc2cc(N3CCC4(CC3)CN[C@H](C(=O)O)C4)nc(N)n2)C(F)(F)F)cc1		
0.062	Cc1cc(-c2cc(Cl)ccc2[C@@H](Oc2cc(N3CCC4(CC3)CN[C@H](C(=O)O)C4)nc(N)n2)C(F)(F)F)ccc1Cl		
0.023	CC(C)(C)c1cccc(-c2cc(Cl)ccc2[C@@H](Oc2cc(N3CCC4(CC3)CN[C@H](C(=O)O)C4)nc(N)n2)C(F)(F)F)c1		Drug metabolism (Mus musculus [7]): Metabolite_Detected
0.02	Cc1ccn(-c2cc(-c3ccc(C)c(C)c3)ccc2[C@@H](Oc2cc(N3CCC4(CC3)CN[C@H](C(=O)O)C4)nc(N)n2)C(F)(F)F)n1		
0.028	Nc1nc(O[C@H](c2ccc(-c3ccc4c(c3)CCC(=O)N4)cc2)C(F)(F)F)cc(N2CCC3(CC2)CN[C@H](C(=O)O)C3)n1	inactive	
0.022	Cc1ccn(-c2cc(-c3ccc(Cl)c(Cl)c3)ccc2[C@@H](Oc2cc(N3CCC4(CC3)CN[C@H](C(=O)O)C4)nc(N)n2)C(F)(F)F)n1		
0.025	Nc1nc(O[C@H](c2ccc(-c3ccc4cnccc4c3)cc2)C(F)(F)F)cc(N2CCC3(CC2)CN[C@H](C(=O)O)C3)n1	inactive	
0.053	CN(C)S(=O)(=O)c1cccc(-c2cc(Cl)ccc2[C@@H](Oc2cc(N3CCC4(CC3)CN[C@H](C(=O)O)C4)nc(N)n2)C(F)(F)F)c1		
0.051	CS(=O)(=O)Nc1cccc(-c2cc(Cl)ccc2[C@@H](Oc2cc(N3CCC4(CC3)CN[C@H](C(=O)O)C4)nc(N)n2)C(F)(F)F)c1		
1.13	Nc1nc(O[C@H](c2ccc(Cl)cc2-c2ccc(S(N)(=O)=O)cc2)C(F)(F)F)cc(N2CCC3(CC2)CN[C@H](C(=O)O)C3)n1		
0.053	Nc1nc(O[C@H](c2ccc(Cl)cc2-c2ccc(Cl)cc2)C(F)(F)F)cc(N2CCC3(CC2)CN[C@H](C(=O)O)C3)n1		
0.026	CSc1ccc2cc(-c3ccc([C@@H](Oc4cc(N5CCC6(CC5)CN[C@H](C(=O)O)C6)nc(N)n4)C(F)(F)F)cc3)ccc2n1	inactive	
0.03	Nc1nc(O[C@H](c2ccc(Cl)cc2-c2cccc(Cl)c2)C(F)(F)F)cc(N2CCC3(CC2)CN[C@H](C(=O)O)C3)n1		
